Earlier results on eleven molecules are cited in PubChem BioAssay AID1259410 (Chemical Carcinogenesis Research Information System (CCRIS), 2018).

This data set has as its system rodent tumor promotion studies, tumor incidence. The data set is described as follows: CCRIS tumor promotion studies.

For the molecule `CC(=O)Nc1ccc2c(c1)Cc1ccccc1-2`, the outcome (Carcinogen: DIETHYLNITROSAMINE, 55-18-5, Doses [Carcinogen]: 50 MG/KG ONCE 24 HR AFTER 2/3 PARTIAL HEPATECTOMY, Doses [Promoter]: 0, 0.02% IN DIET FOR 1 MO BEGINNING 1 WK POST CARCINOGEN DOSE (STUDY DURATION: 8 MO), Route [Carcinogen]: INTRAPERITONEAL, Route [Promoter]: ORAL, Species: RAT, Strain/Sex: WISTAR/MALE) is listed as “liver: carcinoma” and the outcome (Carcinogen: DIETHYLNITROSAMINE, 55-18-5, Doses [Carcinogen]: 200 MG/KG BW IN 0.9% SALINE ONCE, Doses [Promoter]: 0, 0.05 MMOL/KG BW IN POLYETHYLENE GLYCOL FOR 5 D BEGINNING 1 WK POST CARCINOGEN DOSE, 70% PARTIAL HEPATECTOMY PERFORMED, Route [Carcinogen]: INTRAPERITONEAL, Route [Promoter]: GAVAGE, Species: RAT, Strain/Sex: SPRAGUE-DAWLEY/MALE) is recorded as “liver: hepatocellular carcinoma”.
As to `O=[Se](O)O`, the outcome by setting is: (Carcinogen: N-METHYL-N'-NITRO-N-NITROSOGUANIDINE [70-25-7], Doses [Carcinogen]: 20 MG/KG BW DAILY FOR 10 D, Doses [Promoter]: 0, 2, 4 MG/L 1 WK BEFORE MNNG (STUDY DURATION: 43 WKS), Doses [Promoter]: 0, 2, 4 MG/L 1 WK BEFORE MNNG (STUDY DURATION: 43 WKS), Route [Carcinogen]: GAVAGE?, Route [Promoter]: DRINKING WATER, Species: RAT, Strain/Sex: WISTAR/MALE) “stomach: gastric cancer”; (Doses [Carcinogen]: 20 MG/KG/D FOR 10 D, Doses [Promoter]: 2, 4 MG/L WATER ONE WK BEFORE CARCINOGEN (STUDY DURATION: 43 WK), Route [Carcinogen]: GAVAGE, Route [Promoter]: DRINKING WATER, Species: RAT, Strain/Sex: WISTAR (15/GROUP)) “stomach: gastric leiomyoma”.
With `Cn1cnc([N+](=O)[O-])c1Sc1ncnc2nc[nH]c12`, for the setting “Carcinogen: UV IRRADIATION, Doses [Carcinogen]: 0.53 J/CM2 INCREASED BY 20% EVERY 2 WK TO 1.60 J/CM2 AND MAINTAINED AT 1.60 J/CM2 UNTIL DEATH, ADMINISTERED 5 D/WK FOR 1, Doses [Promoter]: 0, 15 UG/G BEGINNING 2 WK POST FIRST CARCINOGEN DOSE ADMINISTERED 2 HR PRIOR TO EACH CARCINOGEN DOSE (STUDY DURATION: 30, Route [Carcinogen]: DERMAL, Route [Promoter]: INTRAPERITONEAL, Species: MOUSE, Strain/Sex: SKH/HRL/FEMALE”, the outcome was “skin: tumor”.
`C[C@H](CCC(=O)O)[C@H]1CC[C@H]2[C@@H]3CC[C@@H]4C[C@H](O)CC[C@]4(C)[C@H]3CC[C@]12C`: the outcome is, setting by setting: (Carcinogen: 3-METHYLCHOLANTHRENE, 56-49-5, Doses [Carcinogen]: 3 MG IN BEESWAX PELLET, Doses [Promoter]: 0, 3 MG IN BEESWAX PELLET (STUDY DURATION: 5 MO), Route [Carcinogen]: IMPLANT, Route [Promoter]: IMPLANT, Species: HAMSTER) “gallbladder: tumor”; (Doses [Carcinogen]: IR, Route [Carcinogen]: RECTAL, Route [Promoter]: RECTAL, Species: RAT, Strain/Sex: MALE,FEMALE) “colon”.
As for `CC(=O)[C@H]1[C@H](C#N)C[C@H]2[C@@H]3CC=C4C[C@@H](O)CC[C@]4(C)[C@H]3CC[C@@]21C`, the outcome (Carcinogen: DIISOPROPANOLNITROSAMINE [53609-64-6], Doses [Carcinogen]: SINGLE DOSE OF 2.5 G/KG BW, Doses [Promoter]: 1000 PPM IN DIET BEGINNING 1 WK AFTER DIPN TREATMENT FOR 19 WKS (STUDY DURATION: 20 WKS), Route [Carcinogen]: SUBCUTANEOUS INJECTION, Route [Promoter]: DIET, Species: RAT, Strain/Sex: SPRAGUE-DAWLEY/MALE) is “thyroid: cystic adenoma, follicular adenoma, and follicular carcinoma”.
For `CCOC(=O)C#Cc1ccccc1`, the outcome (Carcinogen: 7,12-DIMETHYLBENZ[A]ANTHRACENE, 57-97-6, Doses [Carcinogen]: 10 NMOL (2.5 UG IN 200 µL ACETONE), Doses [Promoter]: 5 MG 2/WK FOR 40 WK BEGINNING 2 WK POST CARCINOGEN TREATMENT (STUDY DURATION: 42 WK), Route [Carcinogen]: DERMAL, Route [Promoter]: DERMAL, Species: MOUSE, Strain/Sex: SENCAR/FEMALE) is given as “skin: tumor” and the outcome (Carcinogen: 7,12-DIMETHYLBENZ[A]ANTHRACENE, 57-97-6, Doses [Carcinogen]: 100 NMOL, Doses [Promoter]: 3, 5 MG 2/WK FOR 40 WK BEGINNING 2 WK POST CARCINOGEN TREATMENT (STUDY DURATION: 42 WK), Route [Carcinogen]: DERMAL, Route [Promoter]: DERMAL, Species: MOUSE, Strain/Sex: SENCAR/FEMALE) is given as “skin: tumor”.
As to `Cn1c(=O)c2c(ncn2C)n(C)c1=O`, the outcome (Carcinogen: N-NITROSOBIS(2-OXOPROPYL)AMINE, 60599-38-4, Doses [Carcinogen]: 10 MG/KG 1/WK FOR 3 WK, Doses [Promoter]: 0, 2000 PPM IN DRINKING WATER BEGINNING POST CARCINOGEN TREATMENT AND CONTINUING FOR 37 WK (STUDY DURATION: 40 WK), Route [Carcinogen]: SUBCUTANEOUS, Route [Promoter]: ORAL, Species: HAMSTER, Strain/Sex: HAMSTER/FEMALE) is listed as “pancreas: adenocarcinoma”.
In the case of `O=c1[nH]cnc2[nH]ncc12`, the outcome (Carcinogen: N-(4-(5-NITRO-2-FURYL)-2-THIAZOLYL)FORMAMIDE, Doses [Carcinogen]: DIET, Doses [Promoter]: IN DIET, Route [Carcinogen]: ORAL, Route [Promoter]: ORAL, Species: RAT, Strain/Sex: FEMALE) is “urinary bladder”.
As to `CCCCC(CC)COC(=O)c1ccccc1C(=O)OCC(CC)CCCC` (stereo not given), the outcome runs as follows: (Carcinogen: DIETHYLNITROSAMINE [55-18-5], Doses [Carcinogen]: 200 MG/KG BW ONCE (STUDY DURATION: 48 WK), Doses [Promoter]: 0, 30, 300, 3000, 12000 PPM IN DIET FOR 46 WK BEGINNING 2 WK POST CARCINOGEN DOSE AND 1 WK PRIOR TO 2/3 PARTIAL HEPATECT, Doses [Promoter]: 0, 30, 300, 3000, 12000 PPM IN DIET FOR 46 WK BEGINNING 2 WK POST CARCINOGEN DOSE AND 1 WK PRIOR TO 2/3 PARTIAL HEPATECT, Route [Carcinogen]: INTRAPERITONEAL, Route [Promoter]: ORAL, Species: RAT, Strain/Sex: F344/MALE) “liver: hepatocellular adenoma”; (Carcinogen: DIETHYLNITROSAMINE [55-18-5], Doses [Carcinogen]: 200 MG/KG BW ONCE (STUDY DURATION: 52 WK), Doses [Promoter]: 0, 30, 300, 3000, 12000 PPM IN DIET FOR 46 WK BEGINNING 2 WK POST CARCINOGEN DOSE AND 1 WK PRIOR TO 2/3 PARTIAL HEPATECT, Doses [Promoter]: 0, 30, 300, 3000, 12000 PPM IN DIET FOR 46 WK BEGINNING 2 WK POST CARCINOGEN DOSE AND 1 WK PRIOR TO 2/3 PARTIAL HEPATECT, Route [Carcinogen]: INTRAPERITONEAL, Route [Promoter]: ORAL, Species: RAT, Strain/Sex: F344/MALE) “liver: hepatocellular adenoma or carcinoma”; (Carcinogen: N-ETHYL-N-HYDROXYETHYLNITROSAMINE, 13147-25-6, Doses [Carcinogen]: 0.05% IN DRINKING WATER FOR 2 WK, Doses [Promoter]: 0, 1.2% IN DIET FOR 24 WK POST CARCINOGEN DOSE (STUDY DURATION: 27 WK), Route [Carcinogen]: ORAL, Species: RAT, Strain/Sex: F344/MALE) “kidney: renal cell tumor”; (Carcinogen: N-NITROSODIETHYLAMINE, 55-18-5, Doses [Carcinogen]: 5 UG/G BW ONCE AT 15 D OF AGE, Doses [Promoter]: 0, 12000 PPM IN DIET BEGINNING AT 4 WK OF AGE AND CONTINUING FOR DURATION OF STUDY (STUDY DURATION: 28 WK), Route [Carcinogen]: INTRAPERITONEAL, Route [Promoter]: ORAL, Species: MOUSE, Strain/Sex: C3H/HENCR/FEMALE) “liver: hepatocellular adenoma”; (Carcinogen: N-NITROSODIETHYLAMINE, 55-18-5, Doses [Carcinogen]: 5 UG/G BW ONCE AT 15 D OF AGE, Doses [Promoter]: 0, 12000 PPM IN DIET BEGINNING AT 4 WK OF AGE AND CONTINUING FOR DURATION OF STUDY (STUDY DURATION: 28 WK), Route [Carcinogen]: INTRAPERITONEAL, Route [Promoter]: ORAL, Species: MOUSE, Strain/Sex: C3H/HENCR/MALE) “liver: hepatocellular adenoma”; (Carcinogen: N-NITROSODIETHYLAMINE, 7119-92-8, Doses [Carcinogen]: 80 MG/KG ONCE, Doses [Promoter]: 0, 3000 PPM IN DIET BEGINNING 1 WK POST CARCINOGEN DOSE AND CONTINUING FOR 168 D (STUDY DURATION: 259 D), Route [Carcinogen]: INTRAPERITONEAL, Route [Promoter]: ORAL, Species: MOUSE, Strain/Sex: B6C3F1/MALE) “liver: hepatocellular adenoma”.
In the case of `COC(=O)/C=C/C=C/CCCCCCCCCCCCCO`, for the setting “Carcinogen: 7,12-DIMETHYLBENZ(A)ANTHRACENE, Doses [Carcinogen]: TOP, Route [Carcinogen]: DERMAL, Route [Promoter]: DERMAL, Species: MOUSE, Strain/Sex: MALE,FEMALE”, the outcome was “integumentary system (skin)”.
Regarding `COc1ccc(O)cc1`, the outcome (Carcinogen: DIETHYLNITROSAMINE, 55-18-5, N-METHYLNITROSOUREA, 684-93-5, 1,2-DIMETHYLHYDRAZINE, 540-73-8, N-BUTYL-N-(4-HYDROXYBUTYL)N, Carcinogen: DIETHYLNITROSAMINE, 55-18-5, N-METHYLNITROSOUREA, 684-93-5, 1,2-DIMETHYLHYDRAZINE, 540-73-8, N-BUTYL-N-(4-HYDROXYBUTYL)N, Doses [Carcinogen]: 100 MG/KG BW DEN ONCE FOLLOWED BY 20 MG/KG BW MNU 2/WK FOR 2 WK THEN 40 MG/KG BW DMH 2/WK FOR THE NEXT 2 WK, 0.05% BBN I, Doses [Promoter]: 0, 0.4% IN DIET FOR 24 WK BEGINNING POST CARCINOGEN TREATMENT (STUDY DURATION: 28 WK), Route [Carcinogen]: INTRAPERITONEAL, INTRAPERITONEAL, SUBCUTANEOUS, ORAL, Route [Carcinogen]: INTRAPERITONEAL, INTRAPERITONEAL, SUBCUTANEOUS, ORAL, Route [Promoter]: ORAL, Species: RAT, Strain/Sex: F344/MALE) is on record as “forestomach: papilloma”.
